The record followed here is patent publication US8772321B2, “Heteroannelated anthraquinone derivatives for inhibiting cancers” (National Defense Medical Center, priority 2008, dated 2014).

Molecules are shown by their SMILES. Where a SMILES comes first, the peptide text is derived from it. The star is where a group is joined. Cbz = O=C(OCc1ccccc1)*

Assay type in all cases: cell-based, human
The test system of assay [1] is HeLa cells. As to the kind of experiment: Autophagosome formation, GFP-LC3 fluorescence microscopy. The following applies: HeLa cells transfected with GFP-LC3; 2.5 μM NSC745885, 12 hours. Here is the method:
In FIG. 5B, HeLa cells were transfected with 0.25 μg of an expression vector for GFP-LC3 for 24 hours and then treated with 2.5 μM NSC745885 for 12 hours. […] Vehicle (DMSO) and spermidine (Spd) were used as a negative and positive control, respectively.
(§1) In FIGS. 5C and 5D, HeLa cells were incubated with 2.5 μM NSC745885 for 24 hours. After 48 hours, cells were subjected to SA-β-galactosidase staining (FIG. 5C) and approximately 100 stained cells were quantified (*P<0.05; ** P<0.01; *** P<0.005). NSC745885 induced senescence at a rate of 25% (P=0.0085 compared to DMSO). (FIG. 5D) LC3B-I fragments were observed when the cells were exposed to the drug for longer period of time (FIG. 5A, panel labeled as LE). […] We also treated Hela cells with the autophagy inducer spermidine (Spd) and vehicle (DMSO), which act as the positive and the negative control, respectively.

The subject of another assay is HeLa/shp53 cells. As to the kind of experiment: MTT cell viability assay, HeLa vs HeLa/shp53. The following applies: endogenous p53 silenced; 24, 48, 72 hours. The procedure:
(§2) HeLa and HeLa/shp53 cells were grown in DMEM supplemented with 10% charcoal/dextran-treated fetal bovine serum. Cells in a 24-well plate were transfected with jetPEI (PolyPlus-transfection, France) according to the manufacturer's protocol; total DNA was adjusted to 1.0 μg by the addition of empty vector DNA. Luciferase assays were performed using the Promega Luciferase Assay kit, and the measurement was expressed numerically as relative light units (RLU). Luciferase activities were presented as means and standard deviation of two transfected sets. […] Instead, the reproducibility of the observed effects on luciferase activity was determined in multiple independent transfection experiments.
To understand the functional role that endogenous p53 plays in the cytotoxic effects of DXR and NSC745885, we measured cell viability of HeLa or HeLa/shp53 cells using MTT cell viability assay. In this assay, endogenous p53 is silenced, both in the presence or absence of the drugs (FIG. 8). […]
(Tetrazolium assays rely on reduction of a dye to a coloured formazan, in cell work by metabolically active cells.)

The test system of assay [2] is HeLa cells. As to the kind of experiment: Cell cycle profile by FACS. An excerpt: Cell cycle arrest is an important damage surveillance mechanism. […] Treating the cells with NSC745885 caused 47-58% of cells to arrest in sub-G1, which is indicative of cell death. This effect was dose- and time-dependent (FIG. 3, Panel B).
In general terms: A flow cytometer gives signals particle by particle.

Assay [3] deals with HeLa cells. As to the kind of experiment: Autophagy: LC3B-II immunoblot. The note with it: 12 hours. Here is the method:
(§3) Cell lysates were prepared in lysis buffer (100 mM Tris-HCl pH 8.0, 150 mM NaCl, 0.1% SDS, and 1% Triton 100) at 4° C., separated by sodium dodecyl sulfate-polyacrylamide gel electrophoresis (SDS-PAGE), and then transferred onto a polyvinylidine difluoride membrane (Millipore, USA). Proteins were detected using antibodies against alpha actinin (ACTN), proliferating cell nuclear antigen (PCNA), p53, p21, cyclin B1, and cyclin D1 (Santa Cruz Biotechnology, USA), YH2A.X (EP854(2)Y, Epitomics, USA), cleaved caspase 3, cleaved poly(ADP-ribose) polymerase (PARP) and LC3B-II (Cell signaling, USA).
Altered intracellular localization of LC3B (LC3B-I) and increased electrophoretic mobility of LC3B (LC3B-II) are correlated with recruitment to autophagic membranes and can be used as molecular markers for autophagic activation.
In FIG. 5A, HeLa cells were treated with the indicated concentrations of DXR, NSC745885 for 12 hours, and then cell lysates were analyzed by immunoblot using antibodies directed against LC3. The results are representative of three independent experiments.
(Immunoblotting shows a protein as a band on a membrane.)

In assay [4] the test system is HeLa cells. As to the kind of experiment: Senescence-associated β-galactosidase staining. The following applies: DXR at low concentrations. Here is the method:
Cultured cells were washed in PBS (pH 7.4), incubated in a solution of 2% formaldehyde/0.2% glutaraldehyde, and then incubated overnight at 37° C. in freshly prepared staining solution consisting of 1 mg/mL X-gal (5-bromo-4-chloro-3-indolyl-β-D-galactoside), 5 mM K3Fe(CN)6, 5 mM K4Fe(CN)6, 150 mM NaCl and 2 mM MgCl2 in 40 mM citric acid/sodium phosphate, pH 6.0. Following this incubation, cells were washed with water and examined by light microscopy at 200× magnification.
as §1

Assay [5] deals with p53-dependent reporter (pG13-LUC). As to the kind of experiment: p53-dependent reporter (pG13-LUC) luciferase assay. The note with it: HeLa cells co-transfected with Zac1 expression vector. The procedure:
as §2
HeLa cells infected with human papillomavirus and expressing the E6 oncoprotein, which maintains endogenous wild-type p53 at a very low concentration, are used as a model system for studying human cervical tumorigenesis. In order for us to confirm the effects of DXR and NSC745885 on endogenous p53, HeLa cells were transiently transfected with a p53-dependent reporter (pG13-LUC) (FIG. 7A) and a p21 promoter reporter (p21-LUC) (FIG. 7B), along with an expression vector for a well-known p53 activator (Zac1).

For assay [6], the system named is HeLa cells. As to the kind of experiment: Apoptosis: cleaved PARP and caspase 3 immunoblot, DNA fragmentation gel. The note with it: various doses, 16 hours. The procedure: It is well noted that DXR can induce cardiomyocyte death by apoptosis and necrosis. DXR is also involved in other types of cellular processes, such as autophagy and senescence/aging. To investigate induction of apoptosis caused by NSC745885, we adopted DXR as a positive control and examined the levels of cleaved PARP and caspase 3 as apoptotic indicators using immunoblot (FIG. 4A), as well as DNA fragmentation using agarose gel electrophoresis (FIG. 4B). HeLa cells were treated with either DXR or NSC745885 at various doses for 16 hours. Subsequently, the total cellular protein was extracted and immunoblotted with antibodies against the cleaved types of PARP and caspase 3. Additionally, genomic DNA was isolated and analyzed by 2% agarose gel electrophoresis followed by ethidium bromide staining. The results (FIG. 4A and FIG. 4B) are representative of three independent experiments. […] Treatment with NSC745885 decreased protein stability, an effect that appeared to be selective, and was confirmed in other immunoblot analyses (shown in FIG. 6A, lanes 1 and 6).
as §3

In assay [7] the test system is HeLa cells. The assay can be described thus: DNA damage, immunoblot of γ-phosphorylation of histone H2A.X. The following applies: various doses, 12 hour. Here is the method: The anthracyclin antibiotic agent doxorubicin (DXR) is an active cytotoxic reagent with a wide range of clinical indications, including treatment of solid tumors in the ovary, breast, and gastrointestinal systems, as well as treatment of liquid tumors such as leukemia. […] Specifically, HeLa cells were treated with NSC745885 at various doses for 12 hour. The phosphorylation of γ-H2A.X was subsequently detected by the immunoblot.
as §3

Another assay deals with p53 and p21. The assay can be described thus: p53 and p21 protein expression, immunoblot. The following applies: HeLa cells, MG132 1 uM or 10 uM added 3 hours before harvesting; only at lower concentrations of NSC745885. Here is the method: as §3
Cell cycle regulatory protein p21 is one of p53's targets. […] In this experiment, HeLa cells were treated with the indicated concentrations of DXR or NSC745885 for 12 hours and then assessed by immunoblot (FIG. 6A) and RT-PCR (FIG. 6B).
In FIG. 6C, HeLa cells were treated with the indicated concentrations of NSC745885 for 12 hours; proteasome inhibitor MG132 (1 uM or 10 uM) was added 3 hours before harvesting. Cell protein extracts were tested with anti-p53 and anti-p21 antibodies. The results are representative of two independent experiments.

For `COc1cccc2c1C(=O)c1c(O)c3c(c(O)c1C2=O)C[C@@](O)(C(=O)CO)C[C@@H]3O[C@H]1C[C@H](N)[C@H](O)[C@H](C)O1` [DXR, doxorubicin, reference compound], in the assay on HeLa cells [1], the “autophagosome formation (LC3 aggregation, GFP-LC3)” value is listed as “autophagosome formation”. In the assay on HeLa/shp53 cells, the “sensitivity (cell viability, MTT) in HeLa/shp53 versus HeLa cells” value is given as “dependent on endogenous p53 for cell killing”. Besides, the cell cycle arrest entry with HeLa cells [2] is on record as “cell cycle arrest in S phase”. For the same compound, the “LC3B-II fragment formation (autophagic activation)” value in the assay with HeLa cells [3] is recorded as “LC3B-II fragment formation”. Also, the “senescence rate (SA-β-galactosidase staining)” value in the assay on HeLa cells [4] was 73%. Besides, in [5], the “Zac1-induced p53-dependent reporter activity” value is reported as “inhibited Zac1-induced activity”. Besides, the “induction of apoptosis (cleaved PARP, caspase 3, DNA fragmentation)” value in the assay on HeLa cells [6] is recorded as “strongly induced”. Further, the “DNA damage (phosphorylation of γ-H2A.X, immunoblot)” value in the assay on HeLa cells [7] is listed as “strongly induced DNA damage”.
For the compound `CC(C)C[C@@H](C=O)NC(=O)[C@H](CC(C)C)NC(=O)[C@H](CC(C)C)NC(=O)OCc1ccccc1` [MG132, reference compound] (Cbz-Leu-Leu-Leu-aldehyde), the “effect of MG132 on p53 and p21 degradation by NSC745885” value in the assay with p53 and p21 was “attenuate the degradation of p53 and p21”.
